From the METLIN SMRT retention time set (Domingo-Almenara et al. 2019)

Test: gradient 5% acetonitrile 3 min, to 50% in 2 min, to 85% in 15 min, held 3 min, 100 µL/min
Settings: column: Zorbax Extend-C18 2.1 x 50 mm; eluents: water / acetonitrile, 0.1% formic acid
Outline: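 Pure standards were run in mixtures of ~100 molecules by HPLC coupled to a quadrupole time-of-flight mass spectrometer. The column was a Zorbax Extend-C18 (2.1 × 50 mm, 1.8 μm) at 100 μL/min, with water and acetonitrile each containing 0.1% formic acid, in positive and negative ionization mode. Dead and dwell volumes were 40 μL and 900 μL. Retention time was taken from computationally picked adduct peaks, each manually inspected, with data collected over 3 months.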

Row | SMILES | RP-LC retention time [s]
1 | COC(=O)c1cccc(N2C=C(C(=O)N3CCCC3)S(=O)(=O)c3ccc(Cl)cc32)c1 | 831
2 | Cc1cccc(Cn2cc(C(=O)O)c3ccccc3c2=O)c1 | 857
3 | CC(C)c1ccc(NC(=O)Cn2ncc3c(c2=O)N(C2CC2)C(=O)CS3)cc1 | 784
4 | Cc1nn(C)c(=O)c2cc(S(=O)(=O)NCc3ccccc3)cn12 | 776
5 | CCCNC(=O)C1CCCN(c2nc3ncn(CC(=O)Nc4ccc(F)cc4)c(=O)c3s2)C1 (stereo not drawn) | 692
6 | O=C(CN1CCN(c2ncccn2)CC1)N1c2ccccc2Sc2ccccc21 | 602
7 | Cc1cccc(C(=O)N2CCc3ccc(CNC(=O)NCC4CCCO4)cc32)c1 (stereo not drawn) | 894
8 | CCn1c(=O)c(SCC(=O)NCCCN2CCCCC2C)nc2ccccc21 (stereo not drawn) | 602
9 | CCCn1cnc2cc(CNC(=O)Cc3ccsc3)ccc21 | 619
10 | Cc1ccc(-c2nc(NC(=O)c3sc(C)nc3C)sc2C)cc1 | 1000
11 | O=C(NCc1nc(-c2ccc3c(c2)Sc2ccccc2C(=O)N3C2CC2)no1)c1ccco1 | 861
12 | Cc1ccc(-c2noc(CN3N=NC4C(=O)N(c5ccc(C)c(C)c5)C(=O)C43)n2)cc1 (stereo not drawn) | 1110
13 | COc1cccc(NS(=O)(=O)c2cc3n(c2)CCN(C)C3=O)c1 | 674
14 | CCn1nccc1C(=O)NCCn1c(C)cnc1C1CCC1 | 574
15 | CCOc1nc2c(c(C)nn2-c2cccc(C)c2)c(C)c1CCC(=O)NCCc1c[nH]c2ccccc12 | 1260
16 | COc1cccc(N2CCN(c3ccnc(SCC(=O)Nc4cccc(Cl)c4)n3)CC2)c1 | 827
17 | O=C(Cn1nc2c(N3CCCCCC3)nccn2c1=O)Nc1ccc2c(c1)OCCO2 | 668
18 | CCCN(C(=O)c1ccc(C)cc1)c1nc(-c2ccccc2)cs1 | 809
19 | CC(=O)N1CCc2sc(S(=O)(=O)N3CCN(c4ccccc4)CC3)cc2C1 | 884
20 | CSc1ccc(NC(=O)C2CCN(C(=O)c3ncn4c3COC(c3ccc(F)cc3)C4)CC2)cc1 (stereo not drawn) | 864
21 | O=C(CCc1nc2ccccc2[nH]1)N1CCC(c2noc(-c3ccncc3)n2)C1 (stereo not drawn) | 557
22 | CCOC(=O)N1CCC(NC(=O)Cc2csc(Nc3cccc(Cl)c3)n2)CC1 | 771

Row | SMILES | RP-LC retention time [s]
23 | CN1CCN(C(=O)c2csc(N3CCN(c4ccc(Cl)cc4)CC3)n2)CC1 | 686
24 | Cc1ccc(C)c(NC(=O)Cc2csc3nc(-c4ccc(C)c(C)c4)cn23)c1 | 896
25 | Cn1c(=O)c(N2CCC(NC(=O)Nc3ccc(F)cc3)CC2)nc2ccccc21 | 849
26 | Cn1nc(-c2nnc(-c3ccc(F)cc3)o2)c2c1CCN(S(=O)(=O)c1ccc(F)cc1)C2 | 903
27 | Cc1cc(OCC(=O)NCc2ccccc2Br)nc(N2CCN(c3ccccc3)CC2)n1 | 871
28 | O=C(NCc1csc(C2CCN(C(=O)Cc3ccccc3Cl)CC2)n1)C1CCC1 | 753
29 | O=S(=O)(c1ccc(F)c(Cl)c1)N1CCC(OCc2noc(C3CCCO3)n2)CC1 (stereo not drawn) | 973
30 | COc1ccc(C(C)NC(=O)c2cn3cc(C)ccc3n2)cc1 (stereo not drawn) | 671
31 | O=S(=O)(Nc1ccncc1)c1cccc(C(F)(F)F)c1 | 591
32 | O=C(C1=NNc2ccccc2S1(=O)=O)N1CCCCC1 | 773
33 | CCC(C)C(NC(=O)Cc1ccccc1F)C(=O)Nc1nc2ccccc2[nH]1 (stereo not drawn) | 736
34 | CCC1Oc2ccc(S(=O)(=O)N3CCC(C(=O)N(CC)Cc4ccccc4)CC3)cc2NC1=O (stereo not drawn) | 924
35 | CC(C)NC(=O)CCC(=O)N1CCCn2nc(-c3cn(C)c4ccccc34)cc21 | 718
36 | Cc1cccn2c(Nc3ccc4c(c3)OCCO4)c(-c3ccc(O)cc3)nc12 | 642
37 | CN(C(=O)c1nc(N2CCSCC2)c2cnn(C)c2n1)c1cccc(Cl)c1 | 842
38 | Cc1ccc(C)c(CNC(=O)c2nnc(-c3ccc(S(=O)(=O)N4CCC(C)CC4)cc3)o2)c1 | 1160
39 | CCOC(=O)c1[nH]c(C)c(CCC(=O)N2CCC(C(=O)NCc3ccc(SC)cc3)CC2)c1C | 815
40 | O=C(Nc1ccc2c(c1)OCO2)c1cn(-c2ccc(F)cc2)nn1 | 885
41 | CCn1nnc2c(N3CCOCC3)nc(-c3ccc(NC(=O)Nc4ccc(C(=O)N5CCN(C)CC5)cc4)cc3)nc21 | 690
42 | CC(C)n1c(N2CCN(C(=O)c3ccnn3C)CC2)cc(=O)n(C(C)C)c1=O | 725
43 | COc1ccc(-c2ncc3c(=O)n(CC(=O)N4CCCC4)c(=O)n(C)c3n2)cc1 | 815
44 | CCN1C(=O)c2cc(S(=O)(=O)NCc3cccc(C)c3)ccc2Oc2cccnc21 | 1030

Row | SMILES | RP-LC retention time [s]
45 | Cc1ccccc1CN1CC(=O)N(c2ccccc2)[C@@H]2CS(=O)(=O)C[C@@H]21 | 800
46 | Cc1ccc(CNC(=O)C2(C)CCCN(C(=O)Nc3ccccc3C(F)(F)F)C2)cc1 (stereo not drawn) | 1010
47 | CC1CCN(S(=O)(=O)c2ccc3nn(CC#N)c(=O)n3c2)CC1 | 813
48 | O=C(Cn1nc2c3cc(-c4ccc(F)cc4)nn3ccn2c1=O)Nc1ccc(F)cc1Cl | 959
49 | O=C(NCCc1csc(-c2ccccc2)n1)[C@H]1CCCN1C(=O)c1ccc(F)cc1 | 812
50 | Cc1ccc(S(=O)(=O)N2CCC3(CC2)NCCN=C3NCc2ccc(Cl)cc2)cc1 | 742
51 | CCCn1c2ccccc2c2cnn(CC(=O)NCCN3CC(C)CC(C)C3)c(=O)c21 (stereo not drawn) | 701
52 | Cc1csc(-c2ccc(CNC(=O)c3cccnc3)cc2)n1 | 672
53 | Cn1ncc2c3ccccc3n(CC(=O)N3CCN(c4ccccn4)CC3)c2c1=O | 591
54 | CN(C)CC1CCC/C(=C\c2ccc(OC(=O)/C=C/c3ccccc3)cc2)C1=O (stereo not drawn) | 796
55 | CCc1ccc2nc(NC3=NCN(CCCOC)CN3)nc(C)c2c1 | 694
56 | CN(C)CCn1c2c(c(SCC(=O)Nc3ccc(Cl)cc3)nc1=O)CCC2 | 656
57 | CCN(CC)c1ccc(-c2noc(CN3CCN(c4cccc(C)c4)CC3)n2)cn1 | 865
58 | Cc1cc(C2CCCN2C(=O)Nc2ccccc2Cl)on1 (stereo not drawn) | 830
59 | CCOc1ccc(-c2nc(Cc3noc(-c4cccnc4)n3)c(C)o2)cc1 | 967
60 | Nc1ccc(C(=O)Nc2ccc(Nc3ccncc3)cc2)cc1 | 602
61 | O=c1c2sccc2n(Cc2nc(-c3cccc(Br)c3)no2)c(=O)n1-c1ccc(F)cc1 | 1080
62 | CCOC(=O)Cn1cc(S(=O)(=O)N2CCCC2)ccc1=O | 696
63 | O=S(=O)(c1ccc2c(c1)CCCC2)N1CCCC1c1nc(-c2ccc(Cl)cc2)no1 (stereo not drawn) | 1370
64 | CCc1ccc(NS(=O)(=O)c2cc(-c3[nH]ncc3C(=O)N3CCCC3)oc2C)cc1 | 758
65 | Cc1cccc(NC(=O)c2ccc(=O)n(Cc3ccc(F)cc3)n2)n1 | 800
66 | COc1ccccc1C(=O)N1CCC2(CC1)NC(=O)c1cc(C)ccc1N2C | 732

Row | SMILES | RP-LC retention time [s]
67 | CCN(CC)S(=O)(=O)c1ccc2nc(Cl)cnc2c1 | 950
68 | CCN1CCN(Cc2ccc(C(=O)NCc3ccc(C(F)(F)F)cc3)cc2)C(=O)C1=O | 744
69 | CCn1cc(-c2nc(CC(=O)Nc3ccc(F)c(Cl)c3)cs2)c2cccnc21 | 1020
70 | COc1ccc(Nc2c(-c3ccc(SC)cc3)nc3cnccn23)cc1 | 908
71 | O=C(NCc1ccccc1Cl)C1CCCN(C(=O)c2cc(-c3ccccn3)n[nH]2)C1 (stereo not drawn) | 680
72 | CN(C)CC(=O)N1CC(F)(F)C[C@H]1c1nc(C2CC2)no1 | 584
73 | O=C(Nc1cccc(OCc2nnc(-c3ccccc3)o2)c1)C1CCCC1 | 943
74 | Fc1ccc(F)c(-c2nc(-c3cccc(-c4ccn[nH]4)c3)no2)c1 | 966
75 | CCOC(=O)c1c(Cc2ccc(Cl)cc2)c[nH]c1C | 1010
76 | CCc1nc2ccccc2c(=O)n1Cc1noc(-c2cncc(Br)c2)n1 | 896
77 | Cc1nc(-c2ccncc2)nc2c1CCC(=O)N2Cc1ccccn1 | 559
78 | O=C(c1cccs1)N1CCCC(c2nncn2-c2ccccc2)C1 (stereo not drawn) | 688
79 | COc1ccc(-c2nn(CCCC(=O)N3CCN(c4ccccn4)CC3)c(=O)c3noc(C)c23)cc1 | 636
80 | CCOc1ccccc1NC(=O)N1CCC2(C1)C(=O)Nc1ccc(OC)cc12 (stereo not drawn) | 810
81 | Cc1ccc(Oc2cccc(C(=O)NCc3ccc(F)cc3)c2)nn1 | 681
82 | Cc1ccc(Cn2nc3ccc(S(=O)(=O)N4CCCCCC4)cn3c2=O)cc1C | 1070
83 | Cc1nn(CC(=O)N2CCN(C)CC2)c(=O)c2nc(-c3ccccc3)sc12 | 616
84 | CCC(C)NC(=O)c1cc(C)n(C)n1 (stereo not drawn) | 660
85 | CCOC(=O)c1[nH]c(C)c(CCC(=O)N2CCC(C(=O)NCCCN3CCCC(C)C3)CC2)c1C (stereo not drawn) | 604
86 | Nc1cc(C2CCN(C(=O)NCc3ccc(F)cc3)CC2)no1 | 671
87 | COc1cc(C(=O)N2CCCN(c3cc(-c4ccc(Br)cc4)[nH]n3)CC2)cc(OC)c1OC | 768
88 | O=c1oc2cc(O)cc(O)c2c2ccccc12 | 699
